Organism: Rattus norvegicus
Assay: DrugMatrix - Regimen: Daily Repeat
Type: toxicity, organism-based, Sprague-Dawley
Set-up: regimen Daily Repeat, gender Male, age 6-8 weeks
Conditions: in vivo, po, route oral GAVAGE, […]; for ABSOLUTE BASOPHIL / ABSOLUTE EOSINOPHIL / ABSOLUTE LYMPHOCYTE / ABSOLUTE MONOCYTE / ABSOLUTE SEGMENTED NEUTROPHIL / BASOPHIL / EOSINOPHIL / ERYTHROCYTE COUNT / HEMATOCRIT / HEMOGLOBIN / LEUKOCYTE COUNT / LYMPHOCYTE / MEAN CORPUSCULAR HEMOGLOBIN / MEAN CORPUSCULAR HEMOGLOBIN CONCENTRATION / MONOCYTE / NEUTROPHIL / NUCLEATED RED BLOOD CELLS / PLATELET COUNT: tissue Blood; for ALANINE AMINOTRANSFERASE / ALBUMIN / ALKALINE PHOSPHATASE / ASPARTATE AMINOTRANSFERASE / BLOOD UREA NITROGEN / CARBON DIOXIDE / CHLORIDE / CHOLESTEROL / CREATINE PHOSPHOKINASE / CREATININE / LACTATE DEHYDROGENASE / LIPASE / PHOSPHORUS / POTASSIUM / SODIUM / TOTAL BILIRUBIN / TOTAL PROTEIN / URIC ACID: tissue Plasma
[1] = 0 mg/kg, 72 h, dose level Control, time 3 day
[2] = 0 mg/kg, 120 h, dose level Control, time 5 day
[3] = 10 mg/kg, 72 h, dose level Low, time 3 day

SMILES: CN(CCOc1ccc(CC2SC(=O)NC2=O)cc1)c1ccccn1 (stereo not drawn) [ROSIGLITAZONE]
- ABSOLUTE BASOPHIL [1]: 0 CELLS/uL
- ABSOLUTE EOSINOPHIL [1]: 14 CELLS/uL
- ABSOLUTE LYMPHOCYTE [1]: 11144.67 CELLS/uL
- ABSOLUTE MONOCYTE [1]: 22.5 CELLS/uL
- ABSOLUTE SEGMENTED NEUTROPHIL [1]: 535.5 CELLS/uL
- BASOPHIL [1]: 0%
- EOSINOPHIL [1]: 0.17%
- ERYTHROCYTE COUNT [1]: 5.08 x10E6/uL
- HEMATOCRIT [1]: 32.32%
- HEMOGLOBIN [1]: 12.87 G/DL
- LEUKOCYTE COUNT [1]: 11.72 x10E3/uL
- LYMPHOCYTE [1]: 94.67%
- MEAN CORPUSCULAR HEMOGLOBIN [1]: 25.37 pg
- MEAN CORPUSCULAR HEMOGLOBIN CONCENTRATION [1]: 39.85 G/DL
- MONOCYTE [1]: 0.17%
- NEUTROPHIL [1]: 5%
- NUCLEATED RED BLOOD CELLS [1]: 0 /100WBC
- PLATELET COUNT [1]: 1084 x10E3/uL
- ALANINE AMINOTRANSFERASE [1]: 67.5 u/L
- ALBUMIN [1]: 4.02 G/DL
- ALKALINE PHOSPHATASE [1]: 374.17 u/L
- ASPARTATE AMINOTRANSFERASE [1]: 83.5 u/L
- BLOOD UREA NITROGEN [1]: 14.5 mg/dL
- CARBON DIOXIDE [1]: 30 mmol/L
- CHLORIDE [1]: 100.5 MEQ/L
- CHOLESTEROL [1]: 71.33 mg/dL
- CREATINE PHOSPHOKINASE [1]: 268.33 u/L
- CREATININE [1]: 0.16 mg/dL
- LACTATE DEHYDROGENASE [1]: 81.17 u/L
- LIPASE [1]: 16.67 u/L
- PHOSPHORUS [1]: 10.07 mg/dL
- POTASSIUM [1]: 5.03 MEQ/L
- SODIUM [1]: 142.92 MEQ/L
- TOTAL BILIRUBIN [1]: 0.17 mg/dL
- TOTAL PROTEIN [1]: 5.63 G/DL
- URIC ACID [1]: 0.5 mg/dL
- ABSOLUTE BASOPHIL [2]: 0 CELLS/uL
- ABSOLUTE EOSINOPHIL [2]: 37.5 CELLS/uL
- ABSOLUTE LYMPHOCYTE [2]: 8049.5 CELLS/uL
- ABSOLUTE MONOCYTE [2]: 82.83 CELLS/uL
- ABSOLUTE SEGMENTED NEUTROPHIL [2]: 646.83 CELLS/uL
- BASOPHIL [2]: 0%
- EOSINOPHIL [2]: 0.5%
- ERYTHROCYTE COUNT [2]: 5.36 x10E6/uL
- HEMATOCRIT [2]: 33.9%
- HEMOGLOBIN [2]: 13.02 G/DL
- LEUKOCYTE COUNT [2]: 8.82 x10E3/uL
- LYMPHOCYTE [2]: 90.17%
- MEAN CORPUSCULAR HEMOGLOBIN [2]: 24.32 pg
- MEAN CORPUSCULAR HEMOGLOBIN CONCENTRATION [2]: 38.42 G/DL
- MONOCYTE [2]: 1.17%
- NEUTROPHIL [2]: 8.17%
- NUCLEATED RED BLOOD CELLS [2]: 0.17 /100WBC
- PLATELET COUNT [2]: 1231.5 x10E3/uL
- ALANINE AMINOTRANSFERASE [2]: 62 u/L
- ALBUMIN [2]: 3.97 G/DL
- ALKALINE PHOSPHATASE [2]: 303.67 u/L
- ASPARTATE AMINOTRANSFERASE [2]: 84.5 u/L
- BLOOD UREA NITROGEN [2]: 14.83 mg/dL
- CARBON DIOXIDE [2]: 31.83 mmol/L
- CHLORIDE [2]: 97 MEQ/L
- CHOLESTEROL [2]: 68.83 mg/dL
- CREATINE PHOSPHOKINASE [2]: 411.33 u/L
- CREATININE [2]: 0.16 mg/dL
- LACTATE DEHYDROGENASE [2]: 88.5 u/L
- LIPASE [2]: 9.5 u/L
- PHOSPHORUS [2]: 9.98 mg/dL
- POTASSIUM [2]: 5.72 MEQ/L
- SODIUM [2]: 141.62 MEQ/L
- TOTAL BILIRUBIN [2]: 0.1 mg/dL
- TOTAL PROTEIN [2]: 5.67 G/DL
- URIC ACID [2]: 0.52 mg/dL
- ABSOLUTE BASOPHIL [3]: 0 CELLS/uL
- ABSOLUTE EOSINOPHIL [3]: 0 CELLS/uL
- ABSOLUTE LYMPHOCYTE [3]: 11817.33 CELLS/uL
- ABSOLUTE MONOCYTE [3]: 150.67 CELLS/uL
- ABSOLUTE SEGMENTED NEUTROPHIL [3]: 1032 CELLS/uL
- BASOPHIL [3]: 0%
- EOSINOPHIL [3]: 0%
- ERYTHROCYTE COUNT [3]: 4.98 x10E6/uL
- HEMATOCRIT [3]: 32.63%
- HEMOGLOBIN [3]: 12.83 G/DL
- LEUKOCYTE COUNT [3]: 13 x10E3/uL
- LYMPHOCYTE [3]: 91.33%
- MEAN CORPUSCULAR HEMOGLOBIN [3]: 25.77 pg
- MEAN CORPUSCULAR HEMOGLOBIN CONCENTRATION [3]: 39.37 G/DL
- MONOCYTE [3]: 1%
- NEUTROPHIL [3]: 7.67%
- NUCLEATED RED BLOOD CELLS [3]: 0 /100WBC
- PLATELET COUNT [3]: 1118.67 x10E3/uL
- ALANINE AMINOTRANSFERASE [3]: 64.67 u/L
- ALBUMIN [3]: 4 G/DL
- ALKALINE PHOSPHATASE [3]: 377.67 u/L
- ASPARTATE AMINOTRANSFERASE [3]: 83.67 u/L
- BLOOD UREA NITROGEN [3]: 16.33 mg/dL
- CARBON DIOXIDE [3]: 32.67 mmol/L
- CHLORIDE [3]: 99.33 MEQ/L
- CHOLESTEROL [3]: 66.33 mg/dL
- CREATINE PHOSPHOKINASE [3]: 223.67 u/L
- CREATININE [3]: 0.16 mg/dL
- LACTATE DEHYDROGENASE [3]: 89 u/L
- LIPASE [3]: 9.67 u/L
- PHOSPHORUS [3]: 9.83 mg/dL
- POTASSIUM [3]: 5.42 MEQ/L
- SODIUM [3]: 143.77 MEQ/L
- TOTAL BILIRUBIN [3]: 0.13 mg/dL
- TOTAL PROTEIN [3]: 5.7 G/DL
- URIC ACID [3]: 0.53 mg/dL
